Values of other authors in US20110039804A1, “Composition of Risedronate and Vitamin D3” (LANDSTEINER SCIENTIFIC, S.A. de C.V., priority 2006, published 2011).
Like-named read-outs stand apart in the source and are kept apart here.

Experiments:
[1] = system: patients with Paget's disease
[2] = Paget's disease, 35 mg daily for two months

In the case of `CC(O)(P(=O)(O)O)P(=O)(O)O` [etidronate], the “Patients with normalized serum alkaline phosphatase concentration” value ([1]; Paget's disease, control group, etidronate 400 mg/day for 6 months) is given as 11%.

In the case of `O=P(O)(O)C(O)(Cc1cccnc1)P(=O)(O)O` [risedronate, 3-pyridil-1-hydroxyethylyden-1,1-bisphosphonic acid], the deoxypyridinoline/urinary creatinine ratio [1, 2] is given as “Significantly reduced”, the hydroxyproline/urinary creatinine ratio [1, 2] is given as “Significantly reduced” and the new fractures ([1]; Paget's disease, 35 mg daily for two months, x-rays before and after 6 months) is given as “no new fractures”. For the same molecule, the “Patients with normalized serum alkaline phosphatase concentration” value ([1]; Paget's disease, daily dose of 35 mg risedronate for two months) was 77%, the “dimension of lithic lesions in the axial and appendicular skeleton” value ([1]; Paget's disease, x-rays before and after 6 months of treatment) was “Reduced” and the “Patients staying on biochemical remission” value ([1]; during the 18 months following the two-month treatment) was “Fifty-three”. For the same molecule, the “average distribution volume in a state of balance” value (humans) was 6.3 L/kg and the Tmax (single oral administration, studied range 2.5 mg to 30 mg single dose) was “approximately 1 hour”.

For `O=P([O-])(O)C(O)(Cc1cccnc1)P(=O)(O)O.[Na+]` [sodium risedronate], the systemic metabolism (in vivo) is listed as “no evidence of systemic metabolism”, the “effect of food on oral bioavailability” value (tablet administered with food) is listed as “reduces” and the mid oral bioavailability (tablet, oral) is listed as 0.63%.
